{"source": "patent US8106017B2", "about": "“Peptides for promoting hair growth and improving wrinkle and cosmetic compositions comprising the same” (Caregen Co., Ltd., priority 2005, dated 2012)", "key": {"procollagen": {"system": "procollagen", "assay": "Procollagen level in HaCaT cell line (Procollagen ELISA kit)", "type": "cell-based, human", "settings": "HaCaT keratinocytes, 1 μg/ml; FIG. 9", "procedure": "(§1) Furthermore, HaCaT cell line was treated with the acetyl-octapeptide of this invention (1 μg/ml) and the level of procollagen, one of indicators to show the improvement in skin wrinkle, was examined (FIG. 9). The level of procollagen was measured using Procollagen ELISA kit (Takara). For verifying effects on levels of hyaluronic acid, another indicator representing the improvement in skin wrinkle, HaCaT cell line was incubated with the acetyl-octapeptide of this invention (5 μmole) and the level of hyaluronic acid was measured using Hyaluronic acid ELISA kit (Echelon Biosciences Inc, USA) (FIG. 10)."}, "hyaluronic acid": {"system": "hyaluronic acid", "assay": "Hyaluronic acid level in HaCaT cell line (Hyaluronic acid ELISA kit)", "type": "cell-based, human", "settings": "HaCaT keratinocytes, 5 μmole; FIG. 10", "procedure": "as §1"}, "HaCaT keratinocytes": {"system": "HaCaT keratinocytes", "assay": "SRB colorimetric assay, growth of HaCaT keratinocytes", "type": "cell-based, human", "settings": "10 ng/ml or 1,000 ng/ml, 72 hr, serum-free medium; FIGS. 7 and 8", "procedure": "To analyze effects of peptides of this invention on proliferation of keratinocytes, SRB (Sulforhodamine B) colorimetric assay was carried out using HaCaT kerationcyte according to Rizzino et al method (Rizzino, et al. Cancer Res., 48:4266 (1988)). HaCaT ketatinocytes (The Korean Cell Line Bank) were cultured in 250 ml-flasks containing EMEM (Eagle's minimal essential media, Gibco, U.S.A.) supplemented with […] (fetal bovine serum). HaCaT ketatinocytes cultured were treated with 0.25% trypsin solution to detach cells from the bottom of culture flasks and centrifuged to collect cell pellets. Cells were resuspended in EMEM not containing FBS, its aliquot (4×10^3) cells was added to each well of 96-well plates and cultured under 7% CO2 for 24 hr at 37° C. After 24-hr culture, the medium was changed with a fresh medium not containing serum and cells were incubated with thymosin β-4 or the acetyl-octapeptide (10 ng/ml or 1,000 ng/ml) dissolved in 10% DMSO for 72 hr under the same conditions as described above. After removing supernatants, cells were washed once using PBS (phosphate buffered saline) and incubated with SRB solution (Sigma-Aldrich). Cells were washed with PBS and observed under a microscope to find cell viability. In addition, absorbance at 590 nm was measured to analyze cell proliferation (FIG. 7). […]"}, "BALB/MK karatinocytes": {"system": "BALB/MK karatinocytes", "assay": "[3H]-thymidine incorporation, measurement of biological activities", "type": "cell-based", "settings": "FIG. 5; for biological activity compared with natural thymosin β-4: BALB/MK keratinocytes, thymidine incorporation", "procedure": "The biological activities of the purified acetyl-octapetide of Example 2 were evaluated using BALB/MK karatinocytes according to Falco et al method to measure [^3H]-thymidine incorporation (Falco, et al. (1988) Oncogene., 2, 573). BALB/MK karatinocytes were cultured in 250 ml-flasks containing EMEM (Eagle's minimal essential media, Gibco, U.S.A.) supplemented with […] (fetal bovine serum). BALB/MK karatinocytes cultured were treated with 0.25% trypsin solution to detach cells from the bottom of culture flasks and centrifuged to collect cell pellets. Cells were resuspended in EMEM not containing FBS, its aliquot, 2×10^4 cells/0.3 ml medium was added to each well of 24-well plates and cultured under 7% CO2 for 24 hr at 37° C. 2 ng/ml of the acetyl octapeptide prepared in Example 2 was serially diluted by two-fold using EMEM containing 0.2 (w/v) % bovine serum albumin and 0.3 ml of the diluted peptide was added to each well, followed by additional culturing under 7% CO2 for 6 hr at 37° C. Afterwards, 0.5 μCi of [^3H]-thymidine (Amersham, TRK 686, 68 Ci/mmol) was added to each well and incubated overnight. After removing supernatants, cells were washed once using PBS (phosphate buffered saline) and incubated with 0.1 ml of 0.25% trypsin solution for 5 min at 37° C. to detach cells from the bottom of plates. 0.5 ml of EMEM containing 10% FBS was added to each well and cells were adhered to glass fiber filters using a cell harvester (12 well cell harvester, Millipore, U.S.A.). The filters were washed once with 1 ml of distilled water and once with 1 ml of ethanol, and kept to stand for 30 min at 60° C. for drying. The dried filters were added along with 2 ml of scintillation cocktail to scintillation vials and allowed to stand for 30 min at room temperature, after which radioactivity incorporated into cells was determined using a scintillation counter (Beckman, U.S.A) as shown in FIG. 5."}, "C3H/HeN mice": {"system": "C3H/HeN mice", "assay": "Hair-growth activities in mice with hair removed", "type": "in vivo", "settings": "Formulation Example 5 applied on back for 25 days, initial hair growth effects, hair length and number, FIG. 12", "from_the_text": "The hairs of the back portions of C3H/HeN mice were completely removed using a hair cutter and a hair loss-inducing substance. One day later, Formulation Example 5 (cosmetic liquid) was applied onto the back portions for 25 days and then hair growth was observed."}}}
{"substance": "Ac-Lys-Leu-Lys-Lys-Thr-Glu-Thr-Gln-OH (Ac-KLKKTETQ-OH) [acetyl octapeptide]", "values": [{"measurement": "level of procollagen in cells", "setting": "procollagen", "value": "increased in a dose-dependent manner"}, {"measurement": "level of hyaluronic acid in cells", "setting": "hyaluronic acid", "value": "increased in a dose-dependent manner"}, {"measurement": "cell viability / proliferation of HaCaT keratinocytes versus control", "setting": "HaCaT keratinocytes", "value": "much higher cell viability than control"}, {"measurement": "[3H]-thymidine incorporation into keratinocytes", "setting": "BALB/MK karatinocytes; 2 ng/ml serially diluted two-fold", "value": "promotes thymidine incorporation into kerationcytes in a dose-dependent fashion"}, {"measurement": "biological activity compared with natural thymosin β-4", "setting": "BALB/MK karatinocytes", "value": "high biological activities similar to intact Tβ-4F"}, {"measurement": "biological activity compared with natural thymosin β-4", "setting": "BALB/MK karatinocytes; listed as present peptide", "value": "biological activities almost identical to natural-occurring Tβ4"}, {"measurement": "increase of hair growth compared with control", "setting": "C3H/HeN mice", "value": "25-30%"}]}
